Test results taken from PMC3835719 (MedChemComm, 2013).

What was measured:
[1] = test system: human cancer cell lines of colon, breast, pancreas, and leukemia; experiment: MTT cell growth inhibition, panel of four cancer cell lines; assay type: cell-based; settings: ratio of IC50 values parent/NOSH compound, 24 h
[2] = test system: HT-29 human colon cancer cells; experiment: Proliferation by PCNA antigen expression; assay type: cell-based; settings: at IC50 for cell growth inhibition, 24 hrs
[3] = test system: MCF-7 (estrogen receptor positive) breast cancer cells; experiment: MTT cell growth inhibition, MCF-7 breast cancer cells; assay type: cell-based, human; settings: ratio of IC50 values parent NSAID/NOSH-NSAID, 24 hr
[4] = test system: HT-29 human colon cancer cells; experiment: MTT cell growth inhibition, HT-29 colon cancer cells; assay type: cell-based; settings: for Potency enhancement, Colon HT-29: ratio of IC50 values parent NSAID/NOSH-NSAID, 24 hr
[5] = test system: BxPC-3 human pancreatic cancer cells; experiment: MTT cell growth inhibition, BxPC-3 pancreatic cancer cells; assay type: cell-based; settings: ratio of IC50 values parent NSAID/NOSH-NSAID, 24 hr
[6] = test system: Jurkat T human leukemia cells; experiment: MTT cell growth inhibition, Jurkat T leukemia cells; assay type: cell-based; settings: ratio of IC50 values parent NSAID/NOSH-NSAID, 24 hr
[7] = test system: human mammary epithelial cell line (HMEpC); experiment: Cell growth inhibition, normal mammary epithelial cells; assay type: cell-based; settings: IC50 at 24h, HMEpC vs MCF-7
[8] = test system: HT-29 human colon cancer cells; experiment: Cell cycle phases by PI staining and flow cytometry; assay type: cell-based; settings: at IC50
[9] = test system: human primary pancreatic epithelial cells (HPDE, ACBRI 515); experiment: Cell growth inhibition, normal pancreatic epithelial cells; assay type: cell-based; settings: 24 h, read-out: IC50 for cell growth inhibition, Pancreatic Epithelial HPDE (ACBRI 515)

| SMILES | Enhanced potency over parent compound, range over the cancer cell lines [1] | Reduction of proliferation (PCNA expression) [2] | Potency enhancement, Breast MCF-7 [3] | Fold more potent than the combination (sum of its parts) ([4]; HT-29, intact molecule vs naproxen plus SNAP and ADT-OH) | Potency enhancement, Colon HT-29 [4] | Potency enhancement, Pancreas BxPC-3 [5] | Potency enhancement, Leukemia Jurkats [6] | Fold more potent in breast cancer cell line (MCF-7) than in normal HMEpC cells [7] | Mode of cell cycle arrest [8] | IC50 [9] |
| --- | --- | --- | --- | --- | --- | --- | --- | --- | --- | --- |
| C[C@H](C(=O)Oc1ccc(-c2cc(=S)ss2)cc1)c1ccc2cc(OC(=O)CCCO[N+](=O)[O-])ccc2c1 [NOSH-NAP, (S)-6-(1-oxo-1-(4-(3-thioxo-3H-1,2-dithiol-5-yl)phenoxy)propan-2-yl) naphthalen-2-yl 4-(nitrooxy) butanoate] | 16,000-34,000 fold | approximately 50% | ~20,000 | approximately 8000 fold | ~34,000 | ~16,000 | ~25,000 | approximately 115 fold | G0/G1 cell cycle block | – |
| CC1=C(CC(=O)Oc2ccc(OC(=O)CCCO[N+](=O)[O-])c(C(=O)Oc3ccc(-c4cc(=S)ss4)cc3)c2)c2cc(F)ccc2/C1=C\c1ccc([S+](C)[O-])cc1 (stereo not drawn) [NOSH-SUL, (Z)-4-(3-thioxo-3H-1,2-dithiol-5-yl) phenyl 5-(2-(5-fluoro-2-methyl-1-(4-(methylsulfinyl)benzylidene)-1H-inden-3-yl)acetoxy)-2-((4-(nitrooxy)butanoyl)oxy) benzoate] | 2,500-9,650 fold | approximately 50% | ~9,650 | – | ~9,000 | ~8,200 | ~2,500 | about 150 fold | G2/M block | > 25 µM |
